The values that follow come from US10206908B2, “3-(1H-pyrrolo[3,2-C]pyridin-2-YL)-1H-pyrazolo[3,4-C]pyridines and therapeutic uses thereof” (Samumed, LLC, priority 2015, dated 2019).

What all share (format): cell-based
One assay deals with IL-6 (THP-1 cells). The experiment in a line: IL-6 inhibition in LPS-stimulated THP-1 monocytes (HTRF). As to conditions: Homo sapiens; for inhibition at 10 µM: THP-1, read-out: percent inhibition at 10 μM; for pEC50: IL-6, THP-1 cells, LPS 500 ng/mL, 22 hours. In short, it runs like this:
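THP-1 cells kept 24 h in 1% FBS medium, exposed to compound 2 h at 37 °C, then stimulated with 500 ng/mL LPS for 22 h. Secreted IL-6 quantified by HTRF (665/620 nm ratio), duplicates. Values normalized to DMSO; EC50 by four-parameter variable-slope regression.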

Assay [1] relates to primary human mesenchymal stem cells (hMSCs). Nature of the assay: Induction of chondrogenesis in hMSCs (chondrogenic nodules, Rhodamine B/Nile Red). As to conditions: 6 days; for Emax: relative to TGF-β3 (10 ng/mL) positive control, read-out: Max. Activity as % TGF-β3 activity; for EC50: concentration required to induce 50% levels of chondrogenesis vs TGF-β3, read-out: Conc (nM) of 50% TGF-β3 activity. An excerpt:
Representative compounds were screened using primary human mesenchymal stem cells (hMSCs) to determine their ability to induce chondrogenesis (process by which cartilage is developed).
Human Mesenchymal Stem Cell Culture: Primary human mesenchymal stem cells (hMSCs) were purchased from Lonza (Walkersville, Md.) and expanded in Mesenchymal Stem Cell Growth Media (Lonza). Cells between passage 3 and 6 were used for the experiments.
Number of nodules in each well was normalized to the average of 3 DMSO treated wells on the same plate using Excel (Microsoft Inc.). The normalized averages (fold change over DMSO) of 3 replicate wells for each compound concentration were calculated. Due to solubility limitations of some of the compounds, curve fitting was incomplete leading to inaccurate EC50 determinations.
Using TGF-β3 as a positive control, the concentration of representative compounds required to induce 50% levels of chondrogenesis is reported. In addition, the maximum activity of each compound and the respective dose that each compound reached maximum chondrogenesis activity is reported.

For a further assay, the system named is SW480 colon cancer cells. Nature of the assay: Cell viability assay (CellTiter-Blue) in SW480 colon cancer cells. As to conditions: Homo sapiens; for pEC50: 96 h, SW480 cell viability, four days; for inhibition at 10 µM: SW480, read-out: percent inhibition at 10 μM. In short, it runs like this:
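Fluorescence from resazurin reduced to resorufin by metabolically active cells was the read-out, taken after ~3 h with CellTiter-Blue.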
(In general: Resazurin is reduced to fluorescent resorufin, in cell work by metabolically active cells.)

In assay [2] the test system is primary human fibroblasts derived from IPF patients (LL29 cells) treated with TGF-β1. The experiment in a line: Inhibition of the fibrotic process: αSMA staining in TGF-β1 treated LL29 fibroblasts. As to conditions: Fibroblast; for pEC50: 96 h, % αSMA positive LL29 cells, TGF-β1 20 ng/mL, 4 days; for inhibition at 10 µM: read-out: percent inhibition at 10 μM. In short, it runs like this:
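Read-out after 4-day incubation: αSMA staining with 1 μM SYTOX green nuclear counterstain (30 min, room temperature). Cells were LL29 primary fibroblasts from IPF patients, in 1% FBS F12, exposed to TGF-β1 with test compound, referenced to TGF-β1/DMSO control wells.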

The subject of assay [3] is Wnt activity (Sp5-Luc reporter, SW480 colon carcinoma cells). Nature of the assay: Screening assay for Wnt activity: Sp5-Luc reporter gene assay in SW480 colon carcinoma cells. Particulars: Homo sapiens; for inhibition at 10 µM: SW480, read-out: percent inhibition at 10 μM; for pEC50: Sp5-Luc reporter, SW480 cells, overnight incubation. In short, it runs like this: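 SW480 colon carcinoma cells stably carrying Sp5 promoter (eight TCF/LEF sites)-driven firefly luciferase, plated at 4,000 cells/well in 1% FBS medium and incubated overnight at 37° C. Luminescence normalised to DMSO-only cells; EC50 from four-parameter variable-slope nonlinear regression.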
On the technique in general: In a reporter assay the amount or activity of a reporter protein is the signal.

pEC50: −log10 of the molar value.

For `CC(C)C(=O)Nc1cncc(-c2cc3c(-c4cc5c(-c6ccncc6)nccc5[nH]4)n[nH]c3cn2)c1` [Compound 121, N-(5-(3-(4-(Pyridin-4-yl)-1H-pyrrolo[3,2-c]pyridin-2-yl)-1H-pyrazolo[3,4-c]pyridin-5-yl)pyridin-3-yl)isobutyramide], the inhibition – broadly, the drop in the measured response relative to a control, in per cent – at 10 µM in the assay on IL-6 (THP-1 cells) came to 0%; in the assay on SW480 colon cancer cells it was 19.7%; in assay [3] it was 6.2%. In addition, the negative-log EC50 (pEC50) (in general, the negative decadic logarithm of the EC50, by convention in mol/L) was under 5.00 in the assay with IL-6 (THP-1 cells), under 5.00 with SW480 colon cancer cells, 5.01 in assay [2] and under 5.00 in assay [3]. The Emax in assay [1] is 32%.

With `CN(C)Cc1cncc(-c2cc3c(-c4cc5c(N6CCN(C)CC6)nccc5[nH]4)n[nH]c3cn2)c1` [Compound 237, N,N-Dimethyl-1-(5-(3-(4-(4-methylpiperazin-1-yl)-1H-pyrrolo[3,2-c]pyridin-2-yl)-1H-pyrazolo[3,4-c]pyridin-5-yl)pyridin-3-yl)methanamine], the negative-log EC50 (pEC50) was 5.33 in the assay on IL-6 (THP-1 cells), under 5.00 in the assay with SW480 colon cancer cells, under 5.00 in assay [2] and 5.41 in assay [3]. Moreover, the Emax in assay [1] came to 14%. For the same compound, the inhibition at 10 µM amounted to 43.7% in the assay on SW480 colon cancer cells and 37% in assay [2].

Take `CC(C)CC(=O)Nc1cncc(-c2cc3c(-c4cc5c(-c6ccc(F)cc6)nccc5[nH]4)n[nH]c3cn2)c1` [Compound 30, N-(5-(3-(4-(4-Fluorophenyl)-1H-pyrrolo[3,2-c]pyridin-2-yl)-1H-pyrazolo[3,4-c]pyridin-5-yl)pyridin-3-yl)-3-methylbutanamide]: the pEC50 in the assay with IL-6 (THP-1 cells) is 6.17; in the assay with SW480 colon cancer cells, 6.53; in assay [2], 6.45; in assay [3] it was 6.54. Also, the EC50 in assay [1] was 900 nM. Further, the Emax in assay [1] was 71%.

Regarding `Fc1ccccc1-c1nccc2[nH]c(-c3n[nH]c4cnc(-c5cncc(CN6CCCC6)c5)cc34)cc12` [Compound 70, 3-(4-(2-Fluorophenyl)-1H-pyrrolo[3,2-c]pyridin-2-yl)-5-(5-(pyrrolidin-1-ylmethyl)pyridin-3-yl)-1H-pyrazolo[3,4-c]pyridine], the negative logarithm of the EC50 (pEC50) in the assay on IL-6 (THP-1 cells) is 5.63; with SW480 colon cancer cells, 5.50; in assay [2] it was 5.90; in assay [3], 5.70. The EC50 in assay [1] came out at 10 nM. For the same compound, in assay [1], the Emax was 69%.

For the compound `Oc1cncc(-c2cc3c(-c4cc5c(-c6cccs6)nccc5[nH]4)n[nH]c3cn2)c1` [Compound 709, 5-(3-(4-(Thiophen-2-yl)-1H-pyrrolo[3,2-c]pyridin-2-yl)-1H-pyrazolo[3,4-c]pyridin-5-yl)pyridin-3-ol], the pEC50 was 5.50 with IL-6 (THP-1 cells), 5.20 with SW480 colon cancer cells, 6.47 in assay [2] and 5.99 in assay [3]. The EC50 in assay [1] came out at 10 nM. Further, in assay [1], the Emax turned out to be 83%.

On to `CC(C)(C)CC(=O)Nc1cncc(-c2cc3c(-c4cc5c(-c6ccccc6F)nccc5[nH]4)n[nH]c3cn2)c1` [Compound 72, N-(5-(3-(4-(2-fluorophenyl)-1H-pyrrolo[3,2-c]pyridin-2-yl)-1H-pyrazolo[3,4-c]pyridin-5-yl)pyridin-3-yl)-3,3-dimethylbutanamide], for which the pEC50 in the assay with IL-6 (THP-1 cells) is 5.96; in the assay with SW480 colon cancer cells it was 5.89; in assay [2], 6.03; in assay [3], 5.99. Also, the EC50 in assay [1] turned out to be 30 nM. Moreover, in assay [1], the Emax was 54%.

Consider `CS(=O)(=O)NCc1cc(F)cc(-c2nccc3[nH]c(-c4n[nH]c5cnc(-c6cncc(CNCC7CCCC7)c6)cc45)cc23)c1` [Compound 501, N-(3-(2-(5-(5-(((Cyclopentylmethyl)amino)methyl)pyridin-3-yl)-1H-pyrazolo[3,4-c]pyridin-3-yl)-1H-pyrrolo[3,2-c]pyridin-4-yl)-5-fluorobenzyl)methanesulfonamide], for which the negative logarithm of the EC50 (pEC50) in the assay with IL-6 (THP-1 cells) was 5.47; in the assay on SW480 colon cancer cells, under 5.00; in assay [2], under 5.00; in assay [3] it was under 5.00. The EC50 in assay [1] was found to be 30 nM. For the same compound, in assay [1], the Emax worked out at 52%. Also, the inhibition at 10 µM was determined as 23% in the assay with SW480 colon cancer cells, 41.7% in assay [2] and 49.3% in assay [3].

`CN1CCN(c2nccc3[nH]c(-c4n[nH]c5cnc(-c6cncc(NC(=O)c7ccccc7)c6)cc45)cc23)CC1` [Compound 235, N-(5-(3-(4-(4-Methylpiperazin-1-yl)-1H-pyrrolo[3,2-c]pyridin-2-yl)-1H-pyrazolo[3,4-c]pyridin-5-yl)pyridin-3-yl)benzamide]: the pEC50 is 5.87 in the assay on IL-6 (THP-1 cells), under 5.00 with SW480 colon cancer cells, 5.61 in assay [2] and 5.55 in assay [3]. The EC50 in assay [1] was 10 nM. In addition, the Emax in assay [1] came out at 67%. Further, in the assay on SW480 colon cancer cells, the inhibition at 10 µM worked out at 21.5%.

In the case of `CC(C)C(=O)Nc1cncc(-c2cc3c(-c4cc5cnccc5[nH]4)n[nH]c3cn2)c1` [Compound 261, N-(5-(3-(1H-Pyrrolo[3,2-c]pyridin-2-yl)-1H-pyrazolo[3,4-c]pyridin-5-yl)pyridin-3-yl)isobutyramide], the negative logarithm of the EC50 (pEC50) in the assay with IL-6 (THP-1 cells) is 6.21; in the assay on SW480 colon cancer cells, 5.65; in assay [2], 6.33; in assay [3], 6.40. Further, the EC50 in assay [1] was 30 nM. For the same compound, the Emax in assay [1] was 61%.

Turning to `Fc1ccc(-c2nccc3[nH]c(-c4n[nH]c5cnc(-c6cncc(CN7CCC(F)(F)C7)c6)cc45)cc23)cc1` [Compound 54, 5-(5-((3,3-Difluoropyrrolidin-1-yl)methyl)pyridin-3-yl)-3-(4-(4-fluorophenyl)-1H-pyrrolo[3,2-c]pyridin-2-yl)-1H-pyrazolo[3,4-c]pyridine], the negative logarithm of the EC50 (pEC50) was 6.33 in the assay with IL-6 (THP-1 cells), 5.96 in the assay on SW480 colon cancer cells, 7.55 in assay [2] and 6.54 in assay [3]. In addition, the EC50 in assay [1] came to 10 nM. Further, the Emax in assay [1] was 61%.

As to `CC(C)(C)CC(=O)Nc1cncc(-c2cc3c(-c4cc5cnccc5[nH]4)n[nH]c3cn2)c1` [Compound 268, N-(5-(3-(1H-Pyrrolo[3,2-c]pyridin-2-yl)-1H-pyrazolo[3,4-c]pyridin-5-yl)pyridin-3-yl)-3,3-dimethylbutanamide], the pEC50 was 5.46 in the assay with IL-6 (THP-1 cells), 5.30 in the assay with SW480 colon cancer cells, 5.40 in assay [2] and 5.72 in assay [3]. For the same compound, the EC50 in assay [1] amounted to 10 nM. Further, the Emax in assay [1] came to 59%.

Take `c1cncc(-c2cc3c(-c4cc5cnccc5[nH]4)n[nH]c3cn2)c1` [Compound 256, 5-(Pyridin-3-yl)-3-(1H-pyrrolo[3,2-c]pyridin-2-yl)-1H-pyrazolo[3,4-c]pyridine]: the pEC50 with IL-6 (THP-1 cells) is 6.44; with SW480 colon cancer cells, 6.20; in assay [2] it was 7.60; in assay [3] it was 6.88. Further, in assay [1], the EC50 turned out to be 30 nM. Besides, in assay [1], the Emax came to 62%.

For `CN1CCN(c2nccc3[nH]c(-c4n[nH]c5cnc(-c6cncc(N)c6)cc45)cc23)CC1` [Compound 227, 5-(3-(4-(4-Methylpiperazin-1-yl)-1H-pyrrolo[3,2-c]pyridin-2-yl)-1H-pyrazolo[3,4-c]pyridin-5-yl)pyridin-3-amine], the inhibition at 10 µM in the assay with IL-6 (THP-1 cells) came to 39.5%; with SW480 colon cancer cells, 20.5%; in assay [3], 46.2%. The pEC50 with IL-6 (THP-1 cells) was under 5.00; with SW480 colon cancer cells, under 5.00; in assay [2], 5.27; in assay [3], under 5.00. Also, the Emax in assay [1] was 50%.

On to `CN(C)Cc1cncc(-c2cc3c(-c4cc5c(-c6cccc(F)c6)nccc5[nH]4)n[nH]c3cn2)c1` [Compound 13, 1-(5-(3-(4-(3-Fluorophenyl)-1H-pyrrolo[3,2-c]pyridin-2-yl)-1H-pyrazolo[3,4-c]pyridin-5-yl)pyridin-3-yl)-N,N-dimethylmethanamine], for which the pEC50 was 6.37 in the assay on IL-6 (THP-1 cells), 5.76 in the assay on SW480 colon cancer cells, 8.05 in assay [2] and 5.73 in assay [3]. In addition, the EC50 in assay [1] came to 30 nM. In assay [1], the Emax was found to be 60%.
